Measurements from US11925629B2, “Heterocyclic inhibitors of ERK1 and ERK2 and their use in the treatment of cancer” (Asana Biosciences, LLC, priority 2015, dated 2024).
pIC50: −log10 of the molar value. Where two headings read alike, the source gives them in different places.

Experiments:
[1] = tested on: phosphorylation of RSK1(S380) (the downstream target of ERK1/2); assay: Phospho-RSK1(S380) ELISA assay in HT-29 cells; format: cell-based, human; conditions: phospho-RSK1(S380), read-out: Mechanistic Cell Assay RSK1 Phos HT29 IC50
Protocol: Phospho-RSK1(S380) ELISA Assay
HT-29 cells (colorectal carcinoma, B-RafV600E); obtained from ATCC, USA) were seeded (60,000 cells/well) in a 96-well plate and incubated at 37° C./5% CO2 overnight and then treated with desired compound dilutions for 2 h. Medium was removed and cells were rinsed once with ice-cold 1×PBS, then 0.070 mL ice-cold 1× cell lysis buffer containing 1 mM PMSF was added to each well and the plate was incubated on a shaker for 2 h and 30 min at 4° C. The plate was then centrifuged for 20 min (×4000 rpm) at 4° C. and the supernatant was transferred to a new plate. Cell lysates were diluted with sample diluent at a ratio of 1:1. The ELISA was then carried out following the manufacturer's protocol (PathScan® phospho-RSK1(Ser380) Sandwich ELISA Kit, Cell Signaling Technologies). The plate was read at 450 nm within 30 min after adding STOP solution. The IC50 values were subsequently determined using a sigmoidal dose-response curve (variable slope) in GraphPad Prism® 5 software.

[2] = tested on: HCT116 (colorectal carcinoma, K Ras G13D) cells; assay: Cell proliferation (Alamar Blue) assay, HCT116; format: cell-based, human
Procedure, shortened: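 Cells seeded at 5000/well and allowed 16-24 h at 37° C./5% CO2, then exposed to 3-fold serial dilutions (typically 0.0005 to 10 uM) for 72 h. Viability read by Alamar Blue (1×, 1-3 h) fluorescence at 540/590 nm; IC50 from variable-slope sigmoidal fit.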

[3] = Homo sapiens, HT-29, HT29 cells
[4] = Homo sapiens, HCT-116, HCT116 cells

SMILES | pIC50 ([1]; HT29 cells) | pIC50 ([2]; HCT116 cells) | pIC50 [1, 3] | pIC50 [2, 4]
Cc1cnc(NC2CCOCC2)nc1-n1cnc(C(=O)NCc2ccccc2CCO)c1 [Example 94, N-(2-(2-hydroxy-ethyl)benzyl)-1-(5-methyl-2-((tetrahydro-2H-pyran-4-yl)amino)pyrimidin-4-yl)-1H-imidazole-4-carboxamide] | 5.60 to 6.30 | 5.60 to 6.30 |  | 
Cc1cnc(NC2CCOCC2)nc1-n1cnc(C(=O)NC(CO)c2cccs2)c1 (centres unmarked) [Example 233, N-(2-hydroxy-1-(thiophen-2-yl)ethyl)-1-(5-methyl-2-((tetrahydro-2H-pyran-4-yl)amino)pyrimidin-4-yl)-1H-imidazole-4-carboxamide] |  |  | ≥ 7.00 | < 5.60
Cc1cnc(NC2CCOC2)nc1-n1cnc(C(=O)NC(CN)c2cccc(Cl)c2)c1 (centres unmarked) [Example 235, N-(2-amino-1-(3-chlorophenyl)ethyl)-1-(5-methyl-2-((tetrahydrofuran-3-yl)amino)pyrimidin-4-yl)-1H-imidazole-4-carboxamide] |  |  | 6.60 to 7.00 | 6.60 to 7.00
Cc1cnc(NC2CCOCC2)nc1-n1cnc(C(=O)NC(CO)c2cccc(C(F)(F)F)c2)c1 (centres unmarked) [Example 237, N-(2-hydroxy-1-(3-(trifluoromethyl)phenyl)ethyl)-1-(5-methyl-2-((tetrahydro-2H-pyran-4-yl)amino)pyrimidin-4-yl)-1H-imidazole-4-carboxamide] |  |  | 6.30 to 6.60 | < 5.60
Cc1cccc(C(CO)NC(=O)c2cn(-c3nc(NC4CCOCC4)ncc3C)cn2)c1 (centres unmarked) [Example 238, N-(2-hydroxy-1-(m-tolyl)ethyl)-1-(5-methyl-2-((tetrahydro-2H-pyran-4-yl)amino)pyrimidin-4-yl)-1H-imidazole-4-carboxamide] |  |  | 6.30 to 6.60 | 5.60 to 6.30
Cc1cnc(NC2CCC(F)(F)CC2)nc1-n1cnc(C(=O)N[C@H](CO)c2cccc(Cl)c2)c1 [Example 240, (S)-N-(1-(3-chlorophenyl)-2-hydroxyethyl)-1-(2-((4,4-difluorocyclohexyl)amino)-5-methylpyrimidin-4-yl)-1H-imidazole-4-carboxamide] |  |  | 6.60 to 7.00 | 6.30 to 6.60
Cc1cnc(Nc2ccc(F)cc2Cl)nc1-n1cnc(C(=O)N[C@H](CO)c2cccc(Cl)c2)c1 [Example 241, (S)-1-(2-((2-chloro-4-fluorophenyl)amino)-5-methylpyrimidin-4-yl)-N-(1-(3-chlorophenyl)-2-hydroxyethyl)-1H-imidazole-4-carboxamide] |  |  | 6.30 to 6.60 | < 5.60
Cc1cnc(N[C@H]2CC[C@@H](O)CC2)nc1-n1cnc(C(=O)N[C@H](CO)c2cccc(Cl)c2)c1 [Example 242, N-((S)-1-(3-chlorophenyl)-2-hydroxyethyl)-1-(2-(((1r,4S)-4-hydroxycyclohexyl)amino)-5-methylpyrimidin-4-yl)-1H-imidazole-4-carboxamide] |  |  | 6.30 to 6.60 | 5.60 to 6.30
Cc1cnc(NC2CCOCC2)nc1-n1cnc(C(=O)NCc2ccccc2CCO)c1 [Example 243, N-(2-(2-hydroxyethyl)benzyl)-1-(5-methyl-2-((tetrahydro-2H-pyran-4-yl)amino)pyrimidin-4-yl)-1H-imidazole-4-carboxamide] |  | < 5.60 | 5.60 to 6.30 | 
Cc1cnc(NC2CCOCC2)nc1-n1cnc(C(=O)N[C@]2(c3cccc(Cl)c3)C[C@@H](O)C2)c1 [Example 245, N-((1s,3s)-1-(3-chlorophenyl)-3-hydroxycyclobutyl)-1-(5-methyl-2-((tetrahydro-2H-4-yl)amino)pyrimidin-4-yl)-1H-imidazole-4-carboxamide] |  |  | 6.30 to 6.60 | 5.60 to 6.30
Cc1cnc(NC2CCS(=O)(=O)C2)nc1-n1cnc(C(=O)N[C@H](CO)c2cccc(Cl)c2)c1 (stereo partly drawn) [Example 246, N-((S)-1-(3-chlorophenyl)-2-hydroxyethyl)-1-(2-((1,1-dioxidotetrahydrothiophen-3-yl)amino)-5-methylpyrimidin-4-yl)-1H-imidazole-4-carboxamide] |  |  | < 5.60 | < 5.60
Cc1cnc(NC2CCOc3ccccc32)nc1-n1cnc(C(=O)N[C@H](CO)c2cccc(Cl)c2)c1 (stereo partly drawn) [Example 247, N-((S)-1-(3-chlorophenyl)-2-hydroxyethyl)-1-(2-(chroman-4-ylamino)-5-methylpyrimidin-4-yl)-1H-imidazole-4-carboxamide] |  |  | ≥ 7.00 | < 5.60
Cc1cnc(Nc2ccc(F)cc2)nc1-n1cnc(C(=O)N[C@H](CN)c2cccc(Cl)c2)c1 [Example 248, (S)-N-(2-amino-1-(3-chlorophenyl)ethyl)-1-(2-((4-fluorophenyl)amino)-5-methylpyrimidin-4-yl)-1H-imidazole-4-carboxamide] |  |  | 6.60 to 7.00 | ≥ 7.00
Cc1cnc(Nc2ccc(F)cc2)nc1-n1cnc(C(=O)N[C@@H](CN)c2cccc(Cl)c2)c1 [Example 249, (R)-N-(2-amino-1-(3-chlorophenyl)ethyl)-1-(2-((4-fluorophenyl)amino)-5-methylpyrimidin-4-yl)-1H-imidazole-4-carboxamide] |  |  | 5.60 to 6.30 | 5.60 to 6.30
Cc1cnc(NC2CCOC(C)C2)nc1-n1cnc(C(=O)N[C@H](CO)c2cccc(Cl)c2)c1 (stereo partly drawn) [Example 251, N-((S)-1-(3-chlorophenyl)-2-hydroxyethyl)-1-(5-methyl-2-((2-methyltetrahydro-2H-pyran-4-yl)amino)pyrimidin-4-yl)-1H-imidazole-4-carboxamide] |  |  | ≥ 7.00 | 6.30 to 6.60
Cc1cnc(Nc2ccc(F)c(N3CCOCC3)c2)nc1-n1cnc(C(=O)NC(CN)c2cccc(Cl)c2)c1 (centres unmarked) [Example 256, N-(2-amino-1-(3-chlorophenyl)ethyl)-1-(2-((4-fluoro-3-morpholinophenyl)amino)-5-methylpyrimidin-4-yl)-1H-imidazole-4-carboxamide] |  |  | ≥ 7.00 | ≥ 7.00
Cc1cnc(NC2CCOCC2)nc1-n1cnc(C(=O)NC(CO)c2ccc(Cl)s2)c1 (centres unmarked) [Example 257, N-(1-(5-chlorothiophen-2-yl)-2-hydroxyethyl)-1-(5-methyl-2-((tetrahydro-2H-pyran-4-yl)amino)pyrimidin-4-yl)-1H-imidazole-4-carboxamide] |  |  | 6.30 to 6.60 | < 5.60
Cc1cnc(NC2CCOCC2)nc1-n1cnc(C(=O)NC(CO)c2cccc(C(C)(C)C)c2)c1 (centres unmarked) [Example 258, N-(1-(3-(tert-butyl)phenyl)-2-hydroxyethyl)-1-(5-methyl-2-((tetrahydro-2H-pyran-4-yl)amino)pyrimidin-4-yl)-1H-imidazole-4-carboxamide] |  |  | 6.30 to 6.60 | 5.60 to 6.30
Cc1cnc(NC(CO)CO)nc1-n1cnc(C(=O)N[C@H](CO)c2cccc(Cl)c2)c1 [Example 260, (S)-N-(1-(3-chlorophenyl)-2-hydroxyethyl)-1-(2-((1,3-dihydroxypropan-2-yl)amino)-5-methylpyrimidin-4-yl)-1H-imidazole-4-carboxamide] |  |  | < 5.60 | < 5.60
Cc1ccc(C(CO)NC(=O)c2cn(-c3nc(NC4CCOCC4)ncc3C)cn2)s1 (centres unmarked) [Example 261, N-(2-hydroxy-1-(5-methylthiophen-2-yl)ethyl)-1-(5-methyl-2-((tetrahydro-2H-pyran-4-yl)amino)pyrimidin-4-yl)-1H-imidazole-4-carboxamide] |  |  | 5.60 to 6.30 | < 5.60
Cc1cnc(Nc2ccc(F)cc2)nc1-n1cnc(C(=O)NCc2cccc(Cl)c2CO)c1 [Example 262, N-(3-chloro-2-(hydroxymethyl)benzyl)-1-(2-((4-fluorophenyl)amino)-5-methylpyrimidin-4-yl)-1H-imidazole-4-carboxamide] |  |  | ≥ 7.00 | 5.60 to 6.30
Cc1cnc(N[C@@H]2CCOC2)nc1-n1cnc(C(=O)N[C@H](CN)c2cccc(Cl)c2)c1 [Example 264, N-((S)-2-amino-1-(3-chlorophenyl)ethyl)-1-(5-methyl-2-(((R)-tetrahydrofuran-3-yl)amino)pyrimidin-4-yl)-1H-imidazole-4-carboxamide] |  |  | ≥ 7.00 | 6.60 to 7.00
Cc1cnc(N[C@@H]2CCOC2)nc1-n1cnc(C(=O)N[C@H](CO)c2cccc(Cl)c2)c1 [Example 265, N-((S)-1-(3-chlorophenyl)-2-hydroxyethyl)-1-(5-methyl-2-(((R)-tetrahydrofuran-3-yl)amino)pyrimidin-4-yl)-1H-imidazole-4-carboxamide] |  |  | 6.30 to 6.60 | 6.60 to 7.00
Cc1cnc(Nc2ccc3c(c2)OCO3)nc1-n1cnc(C(=O)N[C@H](CN)c2cccc(Cl)c2)c1 [Example 266, (S)-N-(2-amino-1-(3-chlorophenyl)ethyl)-1-(2-(benzo[d][1,3]dioxol-5-ylamino)-5-methylpyrimidin-4-yl)-1H-imidazole-4-carboxamide] |  |  | ≥ 7.00 | ≥ 7.00
Cc1cnc(NC2CCOCC2)nc1-n1cnc(C(=O)NC(CN)c2cccs2)c1 (centres unmarked) [Example 267, N-(2-amino-1-(thiophen-2-yl)ethyl)-1-(5-methyl-2-((tetrahydro-2H-pyran-4-yl)amino)pyrimidin-4-yl)-1H-imidazole-4-carboxamide] |  |  | 6.60 to 7.00 | 6.60 to 7.00
